This is an account of results in patent publication US9618513B2, “Compositions and methods for detecting and treating colorectal cancer” (The Regents of the University of Michigan, priority 2014, dated 2017).

What all share (type): cell-based, human
For one test, the system named is DLD-1 colon cancer cells. Description: Colon cancer sphere assay, DLD-1 cells. The text has this: (A), IL-22 is expressed in colon cancer tissues. IL-22 mRNA was detected by real-time PCR in colon cancer tissues and peripheral blood. *P<0.05 compared to blood, 20 colon cancer patients. (B-D), Endogenous IL-22 promotes colon carcinogenesis. Single cells (10^7) isolated from colon cancer tissue were mixed with anti-IL-22 antibody or control mAb, and then subcutaneously injected to NSG mice. Tumor growth (B), incidence (C), and animal survival (D) are shown. (P<0.05 for all, n=5 per group). (E-G) Recombinant IL-22 promotes colon carcinogenesis. DLD-1 colon cancer cells (10^5) were pre-incubated with IL-22 (20 ng/ml) for 1 hour, and then subcutaneously injected to NSG mice. Tumor growth (E), incidence (F), and animal survival (G) are shown. (P<0.05 for all, n=5 per group). (H, I) IL-22 enhances colon cancer sphere formation. DLD-1 colon cancer cells were pre-incubated for 24 hours with IL-22. […] ALDH activity was determined by FACS based on aldefluor fluorescence. […] Results are expressed as fold changes of ALDH expression. […] The mRNA of stem cell core gene was detected by real-time PCR (K) and proteins were detected by western blotting (L, M). […]
(A) IL-22 induces H3K79me2 in colon cancer cells. […] Total histone modifications were analyzed by western blot. […] Sphere numbers were recorded. […] DOT1L complex gene expression was quantified by real-time PCR. […] Sphere numbers were recorded. […]

Test [1] has as its system H3K79me2 on NANOG, SOX2, POU5F1 promoters. Nature of the test: H3K79me2-ChIP at core stem cell gene promoters. As to the method:
(§1) (A) IL-22 induces H3K79me2 in colon cancer cells. Colon cancer cells were treated with IL-22 for 48 hours. Total histone modifications were analyzed by western blot. (B, C) DOT1L inhibitor, EPZ004777 suppresses colon cancer sphere formation induced by IL-22. Colon cancer sphere assay was performed in the presence of IL-22 and EPZ004777. Sphere numbers were recorded. DLD-1 cells (B), primary colon cancer cells (C). (n=5, P<0.05). (D, E) IL-22 stimulates DOT1L complex gene expression. Colon cancer cells were cultured for 12 hours with IL-22. DOT1L complex gene expression was quantified by real-time PCR. DLD-1 cells (D), primary colon cancer cells (E). (n=3, P<0.05). (F) DOT1L knock down results in reduced colon cancer sphere formation induced by IL-22. Colon cancer sphere assay was performed with colon cancer cells expressing sh-DOT1L or vector in the presence of IL-22. Sphere numbers were recorded. (n=5, P<0.05). (G-I), IL-22 causes higher occupancy of H3K79me2 on core stem cell gene promoters. H3K79me2-ChIP assay was performed in DLD-1 colon cancer cells cultured with IL-22. One of 3 experiments is shown. (J-L), DOT1L inhibitor, EPZ004777 results in reduced occupancy of H3K79 on core stem cell gene promoters induced by IL-22. H3K79me2 ChIP was performed in DLD-1 colon cancer cells cultured with or without IL-22 and EPZ004777. One of three experiments is shown. […]

For another test, the system named is H3K79me2 (DOT1L). Description: Histone marks by western blot in colon cancer cells. The procedure:
as §1, with “shown.” for “shown. (J-L), DOT1L inhibitor, EPZ004777 results in reduced occupancy of H3K79 on core stem cell gene promoters induced by IL-22. H3K79me2 ChIP was performed in DLD-1 colon cancer cells cultured with or without IL-22 and EPZ004777. One of three experiments is shown.”
DLD1 and primary colon cancer cells (#2) were cultured with different concentrations of EPZ004777. Histone marks were detected by western blot. […]
Colon cancer cells were transfected with control vectors or the shDOT1L vector. Histone marks were detected by Western blot. […]
On the technique in general: In western blotting, separated proteins are transferred to a membrane and probed.

Entries after “also recorded” stand apart in the source; their conditions may differ.

For `CC(C)N(CCCNC(=O)Nc1ccc(C(C)(C)C)cc1)C[C@H]1O[C@@H](n2ccc3c(N)ncnc32)[C@H](O)[C@@H]1O` [EPZ004777], in the test on DLD-1 colon cancer cells (DLD-1 cells, in the presence of IL-22, inhibitor 10 uM), the “sphere formation induced by IL-22” value is recorded as “suppressed”. In test [1] (DLD-1 with or without IL-22 and EPZ004777), the “H3K79me2 binding in the stem cell gene promoter sites induced by IL-22” value was “reduced”. The “H3K79me2 / H3K79 methylation” value with H3K79me2 (DOT1L) (DLD1 and primary colon cancer cells (#2), different concentrations) is “reduced; also recorded: specifically inhibits”.

On to “IL-22: recombinant IL-22 (R&D systems), cytokine interleukin-22”, for which the tumor sphere formation result in the test on DLD-1 colon cancer cells (DLD-1 pre-incubated 24 hours with IL-22, 2,000 cells) is given as “promoted tumor sphere formation in a dose dependent manner”. In addition, the “H3K79me2 binding in proximal promoter areas of NANOG, SOX2, POU5F1” value in test [1] (DLD-1 cultured with IL-22) is on record as “increase”. Further, in the test with H3K79me2 (DOT1L) (colon cancer cells, IL-22 48 hours), the “dimethylation of histone 3 lysine 79 (H3K79me2), total” value is recorded as “selectively increased”.
